Measured values from patent EP0623672A1, “New alkaline serine protease of Paecilomyces lilacinus” (RESEARCH INSTITUTE FOR PLANT PROTECTION, priority 1993, dated 1994).
Like-named read-outs stand apart in the source and are kept apart here.

Legend:
[1] = target: serine protease of Paecilomyces lilacinus (Purpureocillium lilacinum, UniProt Q01471); assay type: biochemical
Protocol: (§1) Protease activity was determined by a modified procedure of Rinderknecht et al. (1968). Ten mg of Hide Powder Azure (Sigma) was incubated in 50 mM Sodium acetate buffer pH 6.0 with the sample in a final volume of 3 ml in small glass containers. Incubation was at 37 °C in a shaking waterbath (110 strokes(min) till the solution turned blue (between 5 and 30 minutes). Following incubation the samples were put on ice and centrifuged in 1.5 ml Eppendorf cups for 5 minutes at 14.000 g. The absorbance of the supernatant was measured at 595 nm on a Uvikon 940 spectrophotometer. Protease activity of the sample was measured in duplo, averaged and expressed as A₅₉₅ ml⁻¹hr⁻¹ after correction for the blank (Milli Q water).
Several protease inhibitors, SH reducing agents and metal ions were tested on the proteolytic activity of the protease: PMSF, E64, 1.10-phenantroline, pepstatine (Sigma); EDTA, cystein MgCl₂ and CaCl₂ (Merck); DTT (BioRad). The purified enzyme was incubated for 40 minutes at 4 °C with inhibitor. After incubation the protease-activity was determined as previously described. Final inhibitor concentration was 1 mM. Protease activity in the absence of inhibitor was expressed as 100 %.

Paecilomyces lilacinus = experiment: Catabolite repression of protease induction in liquid culture; assay type: cell-based; conditions: glucose 0.3 % added each day to MNNC (chitin as substrate); mycelium as inoculum; Figure 2
Protocol: In one experiment mycelium of Paecilomyces lilacinus was used as inoculum. Mycelium was obtained by centrifuging a 6 day old culture of conidia of P. lilacinus in MMNG for 45 minutes at 9000 g. Cultures were grown in a shaking waterbath for several days at 30 °C and 125 strokes per minute. Culture filtrates were obtained by centrifuging cultures for 45 min at 9000 g. Supernatants were concentrated using an Amicon (YM-10 filter) and clarified through a 0.22 µm-filter (Schleicher & Schuell). Pellets were freeze dried and the weigth of the mycelium was measured.
Protease activity was determined by a modified procedure of Rinderknecht et al. (1968). […] Incubation was at 37 °C in a shaking waterbath (110 strokes(min) till the solution turned blue (between 5 and 30 minutes). Following incubation the samples were put on ice and centrifuged in 1.5 ml Eppendorf cups for 5 minutes at 14.000 g. The absorbance of the supernatant was measured at 595 nm on a Uvikon 940 spectrophotometer. Protease activity of the sample was measured in duplo, averaged and expressed as A₅₉₅ ml⁻¹hr⁻¹ after correction for the blank (Milli Q water).
To see whether the fungus used glucose as carbon sourece, glucose concentrations were determined in the culture filtrate, of the fungus in MNNG (Figure 1). […]

[2] = tested on: proteolytic activity in the culture filtrate; experiment: Inhibition of proteolytic activity in the culture filtrate by protease inhibitors; assay type: biochemical, Paecilomyces lilacinus
Protocol: as §1
To identify the nature of the protease the proteolytic activity in the culture filtrate was inhibited with several protease inhibitors. […] Purification of the serine protease(s) was first performed with Benzamidine-Sepharose, an affinity resin for serine proteases of class I (Pharmacia).

[3] = 1 mM final, 40 minutes at 4 °C, Figure 7

serine protease of Paecilomyces lilacinus, sequence (Q01471 entry or part of it): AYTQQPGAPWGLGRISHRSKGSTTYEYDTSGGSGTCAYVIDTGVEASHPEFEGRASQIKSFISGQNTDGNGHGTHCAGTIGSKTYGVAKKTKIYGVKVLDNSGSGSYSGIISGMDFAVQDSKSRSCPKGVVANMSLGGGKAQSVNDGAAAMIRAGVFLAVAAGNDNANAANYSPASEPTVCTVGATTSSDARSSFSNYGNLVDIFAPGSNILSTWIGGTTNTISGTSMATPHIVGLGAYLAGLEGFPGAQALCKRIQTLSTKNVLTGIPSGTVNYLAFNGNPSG

Compound | effect on the proteolytic activity of the purified protease [1, 3] | further results
N[C@@H](CS)C(=O)O [cystein] | did not influence its activity | –
MgCl₂ [Mg⁺⁺] | lowered the protease activity slightly | –
OC[C@H]1OC(O)[C@H](O)[C@@H](O)[C@@H]1O (some centres unmarked) [glucose] | – | induction of protease activity (Paecilomyces lilacinus): repressed
OC(CS)C(O)CS (centres unmarked) [DTT] | did not influence its activity | –
O=S(=O)(F)Cc1ccccc1 [PMSF] | – | inhibition of the activity of the purified protease ([1]; inhibitor 1 mM final, 40 minutes at 4 °C, activity without inhibitor = 100 %, Figure 7): 100%; inhibition of the proteolytic activity in the culture filtrate [2]: most of the protease activity present in the medium was inhibited
O=C(O)CN(CCN(CC(=O)O)CC(=O)O)CC(=O)O [EDTA] | – | effect on the proteolytic activity of the purified protease [1]: enhanced its activity
CaCl₂ [Ca⁺⁺] | lowered the protease activity slightly | –
